Series [1] is described as follows: Human microsome stability assay. To be noted: 1 µM test compound, 0.5 mg/mL liver microsomal protein, 37 °C. Format: in vitro ADME. In a few lines: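 Test compound at 1 µM was incubated with human liver microsomes (0.5 mg/mL protein) and an NADPH-regenerating system in 100 mM potassium phosphate, pH 7.4, at 37 °C. Samples were taken at 0–30 min and quenched with acetonitrile. Remaining compound was quantified by LC-MS/MS, with no-NADPH controls.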
A general note: Liver microsomes are a subcellular fraction often used to study metabolism.

In a further series the target is T1, human TLR8 (Homo sapiens, UniProt Q9NR97).
T1 construct: host or cells: HEK293 (HEK-Blue)
T1 sequence (Q9NR97 27-1041): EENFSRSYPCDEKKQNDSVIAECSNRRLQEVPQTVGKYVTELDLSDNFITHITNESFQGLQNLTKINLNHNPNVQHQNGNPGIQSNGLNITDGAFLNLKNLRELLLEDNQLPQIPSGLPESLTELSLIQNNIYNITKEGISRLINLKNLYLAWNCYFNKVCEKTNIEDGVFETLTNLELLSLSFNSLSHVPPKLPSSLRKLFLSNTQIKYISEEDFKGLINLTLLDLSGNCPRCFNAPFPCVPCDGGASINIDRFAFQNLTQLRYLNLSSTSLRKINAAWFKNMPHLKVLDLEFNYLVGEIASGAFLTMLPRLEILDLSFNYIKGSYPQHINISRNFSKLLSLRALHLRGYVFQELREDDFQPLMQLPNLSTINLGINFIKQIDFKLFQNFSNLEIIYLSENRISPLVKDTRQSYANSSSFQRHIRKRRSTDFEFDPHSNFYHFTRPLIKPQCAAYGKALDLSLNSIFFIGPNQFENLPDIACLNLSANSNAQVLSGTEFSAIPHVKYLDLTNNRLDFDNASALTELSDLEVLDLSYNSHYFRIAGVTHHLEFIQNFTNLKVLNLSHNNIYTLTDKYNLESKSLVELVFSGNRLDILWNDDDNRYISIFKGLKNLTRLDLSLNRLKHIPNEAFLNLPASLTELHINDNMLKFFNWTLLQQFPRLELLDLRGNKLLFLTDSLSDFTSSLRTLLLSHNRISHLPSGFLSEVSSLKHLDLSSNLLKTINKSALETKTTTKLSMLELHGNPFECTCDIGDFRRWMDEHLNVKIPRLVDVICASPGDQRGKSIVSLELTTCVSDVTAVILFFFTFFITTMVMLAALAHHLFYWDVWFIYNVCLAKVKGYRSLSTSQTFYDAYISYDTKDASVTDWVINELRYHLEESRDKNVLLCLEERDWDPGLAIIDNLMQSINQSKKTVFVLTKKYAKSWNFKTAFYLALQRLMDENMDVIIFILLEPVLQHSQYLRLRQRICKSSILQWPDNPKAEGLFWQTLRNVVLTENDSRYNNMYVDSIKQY
Put plainly: HEK293-Blue-hTLR-8 cells assay (SEAP reporter, R848 stimulation). The following applies: HEK293-Blue-hTLR8 cells, R848, 20 hrs; read-out: HEK/hTLR8 IC50. The series is classed as cell-based. In short, it runs like this:
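HEK293-Blue-hTLR8 cells (NF-κB/AP-1-driven SEAP) in DMEM/10% FBS were treated with serially diluted compound (1% DMSO final) plus R848 for 20 hrs at 37 °C. Supernatant SEAP was measured with QUANTI-Blue after 2 hrs at 37 °C, absorbance 620-655 nm; antagonism seen as reduced reporter.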

The structures appear in SMILES notation.

The values that follow come from patent EP3807270B1, “NOVEL HETEROARYL HETEROCYCLYL COMPOUNDS FOR THE TREATMENT OF AUTOIMMUNE DISEASE” (F. Hoffmann-La Roche AG, priority 2018, dated 2019).

`C[C@@H]1CN(c2ccc(C#N)c3nccnc23)C[C@H](CN2CCN(c3cc4c(cn3)[C@@H](C)NCC4)CC2)O1` (single isomer, unassigned) [Example 86]: the “Clearance of Human microsome” value in series [1] was found to be 7.69 mL/min/kg. The IC50 at human TLR8 turned out to be 2 nM.
On the same counts, the results for `C[C@@H]1CN(c2ccc(C#N)c3nccnc23)C[C@H](CN2CCN(c3cc4c(cn3)CCN[C@@H]4C)CC2)O1` (single isomer, unassigned) [Example 87] are 8.91 mL/min/kg and 2 nM.
For the compound `C[C@@H]1CN(c2ccc(C#N)c3nccnc23)C[C@H](CN2CCN(c3cc4c(cn3)CCN[C@H]4C)CC2)O1` (single isomer, unassigned) [Example 88], the IC50 on human TLR8 is 2 nM.
Still for that read-out and setting: under `[2H]c1nc2c(C#N)ccc(N3C[C@H](CN4CCN(c5cc6c(cn5)[C@H](C)NCC6)CC4)O[C@H](C)C3)c2nc1[2H]` (single isomer, unassigned) [Example 94] stands 2 nM.
As for `[2H]c1nc2c(C#N)ccc(N3C[C@H](CN4CCN(c5cc6c(cn5)[C@@H](C)NCC6)CC4)O[C@H](C)C3)c2nc1[2H]` (single isomer, unassigned) [Example 95], in series [1], the “Clearance of Human microsome” value came to 7.13 mL/min/kg. In addition, on human TLR8, the IC50 came out at 3 nM.
On the same counts, the results for `[2H]c1nc2c(C#N)ccc(N3C[C@H](CN4CCN(c5ccc6c(n5)CN[C@H]6C)CC4)O[C@H](C)C3)c2nc1[2H]` (single isomer, unassigned) [Example 96] are 6.23 mL/min/kg and 3 nM.
For `[2H]c1nc2c(C#N)ccc(N3C[C@H](CN4CCN(c5ccc6c(n5)CN[C@@H]6C)CC4)O[C@H](C)C3)c2nc1[2H]` (single isomer, unassigned) [Example 97], in series [1], the “Clearance of Human microsome” value is listed as 6.15 mL/min/kg. The IC50 on human TLR8 was determined as 4 nM.
As for `[2H]c1ccc2c(N3C[C@H](CN4CCN(c5ccc6c(n5)CN[C@@H]6C)CC4)O[C@H](C)C3)ccc(C#N)c2n1` (single isomer, unassigned) [Example 98], the “Clearance of Human microsome” value in series [1] came out at 8.02 mL/min/kg. For the same compound, the IC50 on human TLR8 stood at 5 nM.
Taken in the same sequence, the figures for `[2H]c1ccc2c(N3C[C@H](CN4CCN(c5ccc6c(n5)CN[C@H]6C)CC4)O[C@H](C)C3)ccc(C#N)c2n1` (single isomer, unassigned) [Example 99] were 6.32 mL/min/kg and 5 nM.
On the same counts, the results for `C[C@@H]1CN(c2ccc(C#N)c3ncccc23)C[C@H](CN2CCN(c3ccc4c(c3)CNCC4)CC2)O1` [Example 9, 5-[(2R,6S)-2-methyl-6-[[4-(1,2,3,4-tetrahydroisoquinolin-7-yl)piperazin-1-yl]methyl]morpholin-4-yl]quinoline-8-carbonitrile] are 6.74 mL/min/kg and 15 nM.
For the compound `C[C@@H]1CN(c2ccc(C#N)c3ncccc23)C[C@H](CN2CCN(c3cnc4c(c3)CNC4)CC2)O1` [Example 10, 5-[(2S,6R)-2-[[4-(6,7-dihydro-5H-pyrrolo[3,4-b]pyridin-3-yl)piperazin-1-yl]methyl]-6-methyl-morpholin-4-yl] quinoline-8-carbonitrile], the “Clearance of Human microsome” value in series [1] was 8.61 mL/min/kg. For the same compound, the IC50 on human TLR8 worked out at 23 nM.
